In patent US20100273167A1, “METHODS FOR DETERMINING PRENATAL ALCOHOL EXPOSURE” (priority 2009, published 2010):
Several values for one entry are separate records, joined by “and”; a condition that tells them apart may be missing. Identical values can stand only once. Like-named read-outs stand apart in the source and are kept apart here.

How the values were obtained:
Human AFSC [1] = test system: Human AFSC
Description: (§1) Human AFSC were induced to differentiate into osteogenic cell types as described previously (De Coppi et al., Isolation of amniotic stem cell lines with potential for therapy. Nat Biotechnol. 2007; 25:100-106). Briefly, AFSC was cultured in DMEM low glucose with 10% FBS supplemented with 100 nM dexamethasone (Sigma-Aldrich), 10 mM beta-glycerophosphate (Sigma-Aldrich) and 0.05 mM ascorbic acid-2-phosphate (Wako Chemicals, Irving, Tex.). Cells were grown to confluency and then treated with ethanol for the first 48 hours of osteogenic differentiation to control for ethanol's antiproliferative effect. Cell number was determined after 24 and 48 hours of ethanol and bone differentiation.

[2] = over a period of 24 hours, parafilm sealed
[3] = test system: alkaline phosphatase activity in AFSC; details: 100 mM ethanol at day 8 (midpoint) of osteogenic differentiation for 48 hours
Description: as §1
Alkaline phosphatase activity was measured using p-nitrophenyl phosphate liquid substrate system (Sigma). Cells grown in 24-well plates were rinsed in PBS and incubated with 0.15% Triton X-100 for 30 mins. Two hundred uL of p-nitrophenyl phosphate solution was added to the Triton-X 100 solution. Cells were incubated in the dark for 1 hour and read spectrophotometrically at 405 nm.

[4] = test system: Human AFSC gene expression; details: 100 mM ethanol, 48 hours
Description: Microarray Analyses. Two microarray analyses were performed on AFSC sealed with parafilm for 48 hours with or without 100 mM of ethanol. Fragmented antisense cRNA was used for hybridizing to human U133 A arrays (Affymetrix, Inc. Santa Clara, Calif., USA) at the Core Genomic Facility of Wake Forest University School of Medicine.
Raw CEL files were provided by the Microarray Core Facility of the Wake Forest University School of Medicine and were then analyzed with a software package AffylmGUI (Affymetrix LIMMA, Linear Models for Microarray Data, Graphical User Interfaces) (Wettenhall et al., limmaGUI: a graphical user interface for linear modeling of microarray data. Bioinformatics. 2004; 20:3705-3706; Wettenhall et al., affylmGUI: a graphical user interface for linear modeling of single channel microarray data. Bioinformatics. 2006; 22:897-899). Within AffylmGUI, gene expression values were summarized with RMA. RMA adjusts for background noise, performs a quantile normalization, transforms the data into log base 2, and then summarizes the multiple probes into one intensity (Bolstad et al., A comparison of normalization methods for high density oligonucleotide array data based on variance and bias. Bioinformatics. 2003; 19:185-193; Irizarry et al., Exploration, normalization, and summaries of high density oligonucleotide array probe level data. Biostatistics. 2003; 4:249-264; Irizarry et al., Summaries of Affymetrix GeneChip probe level data. Nucleic Acids Res. 2003; 31:e15). Quantification of relative differences in gene expression among the groups of interest was accomplished using AffylmGUI, the sister package of limmaGUI (Wettenhall et al., limmaGUI: a graphical user interface for linear modeling of microarray data. Bioinformatics. 2004; 20:3705-3706; Wettenhall et al., affylmGUI: a graphical user interface for linear modeling of single channel microarray data. Bioinformatics. 2006; 22:897-899). AffylmGUI reads the raw Affymetrix CEL files directly, summarizes the gene expression values using RMA, and then uses LIMMA to identify statistically significant differences in gene expression (Smyth, Linear models and empirical bayes methods for assessing differential expression in microarray experiments. Stat Appl Genet Mol Biol. 2004; 3:Article3). LIMMA fits a linear model for every gene (like ANOVA or multiple regression analysis), and adjusts P values for multiple testings (Smyth, Linear models and empirical bayes methods for assessing differential expression in microarray experiments. Stat Appl Genet Mol Biol. 2004; 3:Article3). Differentially expressed genes were identified with a fold change >1.8.
To uncover enriched processes, data sets were analyzed by DAVID (Database for Annotation, Visualization and Integrated Discovery), a web-based tool that provides statistical methods for identifying over-represented biological themes and pathways within diverse and disparate gene lists (Dennis et al., DAVID: Database for Annotation, Visualization, and Integrated Discovery. Genome Biol. 2003; 4:3). DAVID also identifies over-represented biological themes in terms of their Gene Ontology (GO) terms and provides tools to visualize the distribution of genes on BioCarta and KFGG pathway maps. (Ashburner et al., Gene ontology: tool for the unification of biology. The Gene Ontology Consortium. Nat Genet. 2000; 25:25-29). GO provides consistent descriptions of genes in terms of biological processes and molecular function. Gene-enrichment analysis computes a modified Fisher exact p-value by comparing the ontological themes identified in our data set to total possible ontological processes present on the U133A chip.

Human AFSC [5] = details: 48 hours
Description: Human AFSC were seeded at 3,000 cells/cm^2 and maintained in culture as described previously (De Coppi et al., Isolation of amniotic stem cell lines with potential for therapy. Nat Biotechnol. 2007; 25:100-106). AFSC were grown in α-MEM medium (Gibco, Invitrogen) containing 15% ES-FBS, 1% glutamine, and 1% penicillin/streptomycin (Gibco), supplemented with 18% Chang B and 2% Chang C (Irvine Scientific) at 37° C. with 5% CO2 atmosphere. For dose-dependent studies on cell growth and viability, AFSC were treated with 25 mM, 50 mM, 75 mM, and 100 mM ethanol (Sigma-Aldrich, St. Louis, Mo.), and sealed with parafilm with media being replaced every 24 hours.
Forty-eight hours after seeding, ethanol was added to the media and parafilm sealed to prevent evaporation. Control groups were not treated with ethanol but otherwise treated identically. Proliferation rate was determined by measuring the number of AFSC after 48 hours of various ethanol concentrations. Cell number was measured using a Coulter counter. Cell viability was determined by propidium iodine (PI) exclusion. AFSC were dissociated by 0.05% trypsin/EDTA (Gibco), centrifuged at 1,500 RPM for 5 minutes, and resuspended in 1 ml of PBS in 15 ml polypropylene tubes. 50 μl of PI, […], was added to each tube and incubated for 1 hour at room temperature. Cells were centrifuged, supernatant removed, and washed twice with a wash buffer. Samples were analyzed by flow cytometry using the FL-1 channel.

Human AFSC [6] = details: 25 mM to 100 mM ethanol
Description: Forty-eight hours after seeding, ethanol was added to the media and parafilm sealed to prevent evaporation. Control groups were not treated with ethanol but otherwise treated identically. […] Cell number was measured using a Coulter counter. Cell viability was determined by propidium iodine (PI) exclusion. AFSC were dissociated by 0.05% trypsin/EDTA (Gibco), centrifuged at 1,500 RPM for 5 minutes, and resuspended in 1 ml of PBS in 15 ml polypropylene tubes. 50 μl of PI, a nucleotide analogue, was added to each tube and incubated for 1 hour at room temperature. Cells were centrifuged, supernatant removed, and washed twice with a wash buffer. Samples were analyzed by flow cytometry using the FL-1 channel.

osteopontin = details: 100 mM ethanol
Description: Total RNA was isolated from AFSC using PerfectPure RNA Cultured Cell Kit (5 Prime) in accordance with the manufacturer's protocol. Following the procedure, DNA digestion was included as recommended by the supplier to eliminate the contamination of genomic DNA. Quality of total RNA was assessed by the spectrophotometric ratio of 260/280. For the reverse-transcriptase reaction, SuperscriptII reverse transcription reagents (Invitrogen) were used. Briefly, 1 μg of RNA was converted to cDNA. PCR amplification was performed with TaqMan Universal Master Mix (Applied Biosystems). Reactions were performed in duplicate, containing 1 μl of cDNA, 1.25 μl probe, 12 μl Master Mix, 10 μl DI H20 and were analyzed in a 96-well optical reaction plate (Applied Biosystems). Reactions were amplified and quantified using an ABI 7700 sequence detectors and manufacturer's software (Applied Biosystems). On demand fluorescent probes for the following genes: β-actin and osteopontin. The threshold cycle (Ct) indicates the fractional cycle number at which the amount of amplified target reaches a defined threshold. ΔCt was obtained by subtracting the Ct values of endogenous controls (β-actin) from the Ct values of the target genes.

c-kit = details: in vitro alcohol exposure of AFSC

Which calcium deposition (Human AFSC [1]; 100 mM ethanol during first 48 hours of osteogenic differentiation, day 23, non-exposed AFSC 77.40±26.85) does the source give for `CCO` [ethanol] here?
Its calcium deposition is 155.06 ± 75.85 µg/mL and 155.1 ± 75.8 µg/mL.

What about the “effect on cell number” value (Human AFSC [1]; cells grown to confluency, 24 and 48 hours of ethanol and bone differentiation (data not shown)) of the same compound?
Its value is “no effect on cell number”.

What about the “ethanol concentration present in the culture media” value [2] of the same compound?
Its value is “did not change”.

And the “effect on alkaline phosphatase activity” value [3]?
The value was “no statistically significant effect on alkaline phosphatase activity”.

And the “Basic fibroblast growth factor/FGF2 expression fold change” value ([4]; growth media)?
The value was −2.0 fold change.

And the “number of genes down-regulated in response to ethanol” value ([4]; growth media)?
The value was 16 genes.

And the “number of genes up-regulated in response to ethanol” value ([4]; growth media)?
Its value is 65 genes.

What about the “Count of down-regulated genes: anatomical structure development” value ([4]; gene ontology category) of the same compound?
Its value is 6.

What about the “Count of down-regulated genes: circulatory system process” value ([4]; gene ontology category) of the same compound?
The value was 3.

And the “Count of down-regulated genes: embryonic development” value ([4]; gene ontology category)?
Its value is 3.

And the “Count of down-regulated genes: glucose transport” value ([4]; gene ontology category)?
The value was 2.

And the “Count of down-regulated genes: multi-organism process” value ([4]; gene ontology category)?
The value was 3.

And the “Count of down-regulated genes: negative regulation of cellular process” value ([4]; gene ontology category)?
Its value is 6.

And the “Count of down-regulated genes: regulation of biological quality” value ([4]; gene ontology category)?
Its value is 4.

What about the “Count of up-regulated genes: IGF receptor signaling pathway” value ([4]; gene ontology category) of the same compound?
Its value is 2.

And the “Count of up-regulated genes: biomineral & ossification” value ([4]; gene ontology category)?
The value was 5.

And the “Count of up-regulated genes: blood vessel morphogenesis” value ([4]; gene ontology category)?
Its value is 4.

What about the “Count of up-regulated genes: developmental process” value ([4]; gene ontology category) of the same compound?
Its value is 17.

What about the “Count of up-regulated genes: organ development” value ([4]; gene ontology category) of the same compound?
The value was 12.

What about the “Count of up-regulated genes: organ morphogenesis” value ([4]; gene ontology category) of the same compound?
The value was 7.

And the “Count of up-regulated genes: reproductive developmental process” value ([4]; gene ontology category)?
The value was 4.

And the “Count of up-regulated genes: skeletal development” value ([4]; gene ontology category)?
Its value is 5.

What about the “Count of up-regulated genes: system development” value ([4]; gene ontology category) of the same compound?
Its value is 13.

What about the “Count of up-regulated genes: tyrosine kinase signaling pathway” value ([4]; gene ontology category) of the same compound?
Its value is 4.

What about the “reduction in proliferation rate” value (Human AFSC [5]; 25 mM ethanol, relative to cells without ethanol) of the same compound?
Its value is 22%.

And the “reduction in the rate of proliferation” value (Human AFSC [5]; 100 mM ethanol, relative to cells without ethanol)?
The value was 33%.

And the “effect on rate of proliferation” value (Human AFSC [5]; 25-100 mM ethanol)?
Its value is “dose-dependent reduction in the rate of proliferation”.

And the “effect on cell viability” value (Human AFSC [6])?
The value was “did not have a significant effect on cell viability”.

What about the “increase in mRNA expression of osteopontin” value (shortened to “increase in mRNA expression”) (osteopontin; 24 hours, growth media, vs control AFSC) of the same compound?
Its value is 2.2 fold.

What about the “increase in mRNA expression” value (osteopontin; 24 hours, osteogenic media) of the same compound?
Its value is 2 fold.

And the “increase in mRNA expression” value (osteopontin; 48 hours, growth media, vs control AFSC)?
Its value is 2.8 fold change.

What about the “effect on c-kit expression” value (c-kit) of the same compound?
The value was “does not appear to affect c-kit expression”.
